PMC4079752 (Clinical cancer research : an official journal of the …, 2014)

Target: bacterial β-glucuronidase (E. coli GUS) (Escherichia coli, UniProt P05804)
Test: GUS enzyme activity assay with purified enzyme
Type: biochemical

Chain of bacterial β-glucuronidase (E. coli GUS) (P05804 whole entry): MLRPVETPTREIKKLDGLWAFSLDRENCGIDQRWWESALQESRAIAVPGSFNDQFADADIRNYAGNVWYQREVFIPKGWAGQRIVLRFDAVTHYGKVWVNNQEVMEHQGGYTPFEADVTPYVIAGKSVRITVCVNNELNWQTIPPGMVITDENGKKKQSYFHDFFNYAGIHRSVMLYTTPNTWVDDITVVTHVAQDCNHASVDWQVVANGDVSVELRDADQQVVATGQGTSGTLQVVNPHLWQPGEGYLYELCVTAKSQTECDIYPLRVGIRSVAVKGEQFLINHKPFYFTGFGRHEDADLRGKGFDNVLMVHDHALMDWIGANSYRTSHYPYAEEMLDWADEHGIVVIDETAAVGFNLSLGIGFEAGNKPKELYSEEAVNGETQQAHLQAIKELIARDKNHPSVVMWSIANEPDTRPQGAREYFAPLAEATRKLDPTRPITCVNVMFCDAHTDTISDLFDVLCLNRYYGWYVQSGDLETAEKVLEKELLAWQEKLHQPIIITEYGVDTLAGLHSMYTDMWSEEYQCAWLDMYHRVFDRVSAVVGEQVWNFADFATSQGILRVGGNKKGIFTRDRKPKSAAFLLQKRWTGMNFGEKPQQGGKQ

SMILES	IC50 [nM]
Oc1ccc2c(c1)N=C(N1CCNCC1)c1cc(Cl)ccc1O2 [8-OHAMOX, 8-hydroxyamoxapine]	1990
Oc1ccc2c(c1)Oc1ccc(Cl)cc1C(N1CCNCC1)=N2 [7-OHAMOX, 7-hydroxyamoxapine]	981 ± 183
